Calls of active or inactive are those of the source. No cut-off for these calls is given here.
Legend:
[1] = Inhibition of Cdk4/cyclin D1
[2] = biological target: Calcium/calmodulin-dependent protein kinase type II subunit beta (Homo sapiens) (UniProt Q13554)
[3] = biological target: Cyclin-dependent kinase-like 1 (Homo sapiens) (UniProt Q00532)
[4] = biological target: Serine/threonine-protein kinase Nek6 (Homo sapiens) (UniProt Q9HC98)
[5] = biological target: Serine/threonine-protein kinase OSR1 (Homo sapiens) (UniProt O95747)
[6] = biological target: T1, 3-phosphoinositide-dependent protein kinase 1 (Homo sapiens) (UniProt O15530)
T1 sequence (whole entry): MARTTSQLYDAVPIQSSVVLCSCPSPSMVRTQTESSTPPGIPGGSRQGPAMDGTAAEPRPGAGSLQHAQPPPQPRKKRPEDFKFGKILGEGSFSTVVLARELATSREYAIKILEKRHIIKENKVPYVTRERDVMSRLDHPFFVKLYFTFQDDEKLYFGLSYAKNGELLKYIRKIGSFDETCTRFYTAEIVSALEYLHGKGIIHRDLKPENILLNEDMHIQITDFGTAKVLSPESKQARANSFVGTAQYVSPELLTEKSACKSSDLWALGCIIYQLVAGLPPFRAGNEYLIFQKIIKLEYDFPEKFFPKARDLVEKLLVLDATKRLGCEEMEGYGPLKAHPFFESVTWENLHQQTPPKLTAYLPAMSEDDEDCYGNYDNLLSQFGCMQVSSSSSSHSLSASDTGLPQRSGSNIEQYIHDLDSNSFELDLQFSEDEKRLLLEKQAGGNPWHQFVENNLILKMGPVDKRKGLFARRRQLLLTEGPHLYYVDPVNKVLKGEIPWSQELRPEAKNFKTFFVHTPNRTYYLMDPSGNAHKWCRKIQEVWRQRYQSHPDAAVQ

[7] = biological target: T2, Serine/threonine-protein kinase PLK4 (Homo sapiens) (UniProt O00444)
T2 sequence (whole entry): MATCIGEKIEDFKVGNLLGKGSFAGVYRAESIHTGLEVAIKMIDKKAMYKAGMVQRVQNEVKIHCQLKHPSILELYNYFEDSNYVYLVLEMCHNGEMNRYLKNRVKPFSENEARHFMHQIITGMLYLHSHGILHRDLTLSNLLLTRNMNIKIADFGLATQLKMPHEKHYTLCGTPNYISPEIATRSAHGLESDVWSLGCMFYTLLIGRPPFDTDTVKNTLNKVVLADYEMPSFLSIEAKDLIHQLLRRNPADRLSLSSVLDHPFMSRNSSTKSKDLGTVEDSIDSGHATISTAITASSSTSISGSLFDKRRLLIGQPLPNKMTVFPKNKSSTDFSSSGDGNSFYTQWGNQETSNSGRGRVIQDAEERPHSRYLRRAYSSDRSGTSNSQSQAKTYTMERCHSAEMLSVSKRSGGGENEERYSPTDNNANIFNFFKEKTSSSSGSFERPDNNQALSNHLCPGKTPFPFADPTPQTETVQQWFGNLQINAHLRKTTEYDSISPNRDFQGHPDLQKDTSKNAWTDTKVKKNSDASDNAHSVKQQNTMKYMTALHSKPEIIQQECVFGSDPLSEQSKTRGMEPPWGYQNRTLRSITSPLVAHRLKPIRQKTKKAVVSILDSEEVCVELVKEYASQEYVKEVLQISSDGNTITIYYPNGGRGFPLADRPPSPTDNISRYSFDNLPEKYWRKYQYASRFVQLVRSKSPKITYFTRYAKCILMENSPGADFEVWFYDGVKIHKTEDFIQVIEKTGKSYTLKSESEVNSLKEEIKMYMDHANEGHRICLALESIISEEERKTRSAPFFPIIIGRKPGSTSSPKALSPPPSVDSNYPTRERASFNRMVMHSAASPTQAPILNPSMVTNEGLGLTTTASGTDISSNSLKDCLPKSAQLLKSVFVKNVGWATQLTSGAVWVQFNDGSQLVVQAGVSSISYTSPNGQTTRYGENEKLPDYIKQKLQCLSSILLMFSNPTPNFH

[8] = biological target: Serine/threonine-protein kinase 16 (Homo sapiens) (UniProt O75716)
[9] = biological target: Mast/stem cell growth factor receptor Kit (Homo sapiens, UniProt P10721); test: Inhibition of c-kit
[10] = biological target: Proto-oncogene tyrosine-protein kinase Src (Homo sapiens, UniProt P12931); test: Inhibition of Src
[11] = biological target: T3, Protein kinase C epsilon type (Homo sapiens, UniProt Q02156); test: Inhibition of PKCepsilon
T3 sequence (Q02156 whole entry): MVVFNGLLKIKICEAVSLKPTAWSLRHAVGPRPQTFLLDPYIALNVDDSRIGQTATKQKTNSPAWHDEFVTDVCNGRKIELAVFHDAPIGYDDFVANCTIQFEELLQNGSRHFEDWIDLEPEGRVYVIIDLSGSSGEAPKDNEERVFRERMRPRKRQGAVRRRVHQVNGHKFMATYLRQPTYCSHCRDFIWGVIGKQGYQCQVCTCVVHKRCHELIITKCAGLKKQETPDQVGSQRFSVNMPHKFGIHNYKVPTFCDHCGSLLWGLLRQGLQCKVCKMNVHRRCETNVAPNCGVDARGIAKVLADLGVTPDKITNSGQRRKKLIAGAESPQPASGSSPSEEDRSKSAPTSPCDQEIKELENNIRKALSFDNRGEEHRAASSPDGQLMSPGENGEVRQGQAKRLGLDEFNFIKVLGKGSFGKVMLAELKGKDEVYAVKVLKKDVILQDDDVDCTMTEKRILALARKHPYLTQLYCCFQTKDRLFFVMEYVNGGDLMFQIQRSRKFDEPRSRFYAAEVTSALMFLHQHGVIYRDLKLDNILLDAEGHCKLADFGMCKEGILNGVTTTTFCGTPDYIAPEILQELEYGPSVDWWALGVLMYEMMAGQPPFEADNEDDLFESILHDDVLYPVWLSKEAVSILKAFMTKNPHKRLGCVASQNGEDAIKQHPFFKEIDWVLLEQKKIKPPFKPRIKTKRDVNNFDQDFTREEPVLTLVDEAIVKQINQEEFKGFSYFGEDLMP

Sequence of Proto-oncogene tyrosine-protein kinase Src (P12931 2-536 limits assumed): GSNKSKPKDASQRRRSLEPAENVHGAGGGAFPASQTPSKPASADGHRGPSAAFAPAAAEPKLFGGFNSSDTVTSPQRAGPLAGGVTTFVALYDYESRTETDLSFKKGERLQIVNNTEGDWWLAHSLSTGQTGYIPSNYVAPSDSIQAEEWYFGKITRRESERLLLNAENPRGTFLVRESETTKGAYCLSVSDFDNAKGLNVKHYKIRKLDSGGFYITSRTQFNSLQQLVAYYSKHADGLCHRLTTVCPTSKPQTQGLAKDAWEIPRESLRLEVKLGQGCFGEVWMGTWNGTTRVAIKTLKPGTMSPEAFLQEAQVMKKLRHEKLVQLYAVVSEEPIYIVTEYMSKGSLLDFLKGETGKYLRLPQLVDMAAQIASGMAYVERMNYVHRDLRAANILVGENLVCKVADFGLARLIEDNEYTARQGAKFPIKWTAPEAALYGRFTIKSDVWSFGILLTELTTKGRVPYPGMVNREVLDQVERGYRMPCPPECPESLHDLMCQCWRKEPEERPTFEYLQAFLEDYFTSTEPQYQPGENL
Sequence of Serine/threonine-protein kinase Nek6 (Homo sapiens) (Q9HC98 whole entry): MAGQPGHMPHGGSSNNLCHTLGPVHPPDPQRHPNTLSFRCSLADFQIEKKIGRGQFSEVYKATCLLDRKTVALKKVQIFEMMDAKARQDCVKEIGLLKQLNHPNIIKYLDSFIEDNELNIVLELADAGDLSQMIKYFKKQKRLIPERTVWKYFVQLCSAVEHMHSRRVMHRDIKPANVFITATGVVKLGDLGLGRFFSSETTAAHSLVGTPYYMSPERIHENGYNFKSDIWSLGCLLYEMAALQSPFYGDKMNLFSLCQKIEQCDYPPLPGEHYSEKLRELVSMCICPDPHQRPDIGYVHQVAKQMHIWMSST
Sequence of Mast/stem cell growth factor receptor Kit (P10721 whole entry): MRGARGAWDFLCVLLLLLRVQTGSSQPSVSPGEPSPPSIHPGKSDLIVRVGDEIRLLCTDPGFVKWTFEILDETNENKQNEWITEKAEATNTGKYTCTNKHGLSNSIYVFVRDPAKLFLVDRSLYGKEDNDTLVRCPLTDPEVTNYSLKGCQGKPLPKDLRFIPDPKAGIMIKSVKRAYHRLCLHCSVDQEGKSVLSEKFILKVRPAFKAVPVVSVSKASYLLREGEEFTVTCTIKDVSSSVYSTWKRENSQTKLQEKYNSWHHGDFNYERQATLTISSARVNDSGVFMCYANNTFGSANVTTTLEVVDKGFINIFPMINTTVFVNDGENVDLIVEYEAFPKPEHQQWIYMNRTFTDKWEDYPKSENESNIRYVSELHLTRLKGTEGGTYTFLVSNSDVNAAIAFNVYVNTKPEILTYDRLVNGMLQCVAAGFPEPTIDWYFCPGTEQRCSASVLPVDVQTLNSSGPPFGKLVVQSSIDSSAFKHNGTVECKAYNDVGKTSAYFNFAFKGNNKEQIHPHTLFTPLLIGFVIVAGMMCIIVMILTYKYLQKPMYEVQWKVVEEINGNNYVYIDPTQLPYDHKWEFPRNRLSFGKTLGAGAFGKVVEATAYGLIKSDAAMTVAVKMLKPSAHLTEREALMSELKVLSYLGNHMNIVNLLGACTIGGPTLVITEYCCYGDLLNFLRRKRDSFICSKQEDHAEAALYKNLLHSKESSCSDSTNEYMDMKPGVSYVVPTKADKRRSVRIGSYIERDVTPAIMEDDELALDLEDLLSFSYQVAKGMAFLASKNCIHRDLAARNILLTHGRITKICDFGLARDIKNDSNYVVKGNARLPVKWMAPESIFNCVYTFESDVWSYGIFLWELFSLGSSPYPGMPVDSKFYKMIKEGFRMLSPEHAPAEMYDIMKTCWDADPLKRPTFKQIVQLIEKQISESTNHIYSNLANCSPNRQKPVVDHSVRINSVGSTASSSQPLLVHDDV
Sequence of Calcium/calmodulin-dependent protein kinase type II subunit beta (Homo sapiens) (Q13554 whole entry): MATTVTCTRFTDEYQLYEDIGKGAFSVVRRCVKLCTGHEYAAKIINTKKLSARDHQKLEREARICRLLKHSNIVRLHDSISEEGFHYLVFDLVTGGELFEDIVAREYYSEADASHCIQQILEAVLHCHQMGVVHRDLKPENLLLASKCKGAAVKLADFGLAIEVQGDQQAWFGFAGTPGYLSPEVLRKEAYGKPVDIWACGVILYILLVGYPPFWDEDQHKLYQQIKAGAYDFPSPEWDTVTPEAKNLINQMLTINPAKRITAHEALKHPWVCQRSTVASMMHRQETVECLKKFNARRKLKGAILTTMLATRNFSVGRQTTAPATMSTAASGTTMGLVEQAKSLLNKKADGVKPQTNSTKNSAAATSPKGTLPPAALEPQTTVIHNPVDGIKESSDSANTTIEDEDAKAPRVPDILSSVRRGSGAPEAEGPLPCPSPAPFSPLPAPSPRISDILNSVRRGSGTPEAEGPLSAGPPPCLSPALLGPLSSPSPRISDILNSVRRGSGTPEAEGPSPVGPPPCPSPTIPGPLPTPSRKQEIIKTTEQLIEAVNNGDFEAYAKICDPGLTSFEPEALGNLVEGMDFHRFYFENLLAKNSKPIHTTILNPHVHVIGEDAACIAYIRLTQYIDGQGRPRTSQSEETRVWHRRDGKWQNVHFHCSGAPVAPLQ
Sequence of Serine/threonine-protein kinase 16 (Homo sapiens) (O75716 whole entry): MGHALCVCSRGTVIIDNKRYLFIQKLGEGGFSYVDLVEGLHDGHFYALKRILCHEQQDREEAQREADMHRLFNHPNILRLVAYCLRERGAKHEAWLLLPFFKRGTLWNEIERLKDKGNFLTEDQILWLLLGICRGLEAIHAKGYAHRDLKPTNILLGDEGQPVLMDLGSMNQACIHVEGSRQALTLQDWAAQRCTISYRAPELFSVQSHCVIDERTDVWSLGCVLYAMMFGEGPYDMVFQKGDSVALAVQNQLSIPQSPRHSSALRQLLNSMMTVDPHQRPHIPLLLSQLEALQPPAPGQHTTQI
Sequence of Serine/threonine-protein kinase OSR1 (Homo sapiens) (O95747 2-527 limits assumed): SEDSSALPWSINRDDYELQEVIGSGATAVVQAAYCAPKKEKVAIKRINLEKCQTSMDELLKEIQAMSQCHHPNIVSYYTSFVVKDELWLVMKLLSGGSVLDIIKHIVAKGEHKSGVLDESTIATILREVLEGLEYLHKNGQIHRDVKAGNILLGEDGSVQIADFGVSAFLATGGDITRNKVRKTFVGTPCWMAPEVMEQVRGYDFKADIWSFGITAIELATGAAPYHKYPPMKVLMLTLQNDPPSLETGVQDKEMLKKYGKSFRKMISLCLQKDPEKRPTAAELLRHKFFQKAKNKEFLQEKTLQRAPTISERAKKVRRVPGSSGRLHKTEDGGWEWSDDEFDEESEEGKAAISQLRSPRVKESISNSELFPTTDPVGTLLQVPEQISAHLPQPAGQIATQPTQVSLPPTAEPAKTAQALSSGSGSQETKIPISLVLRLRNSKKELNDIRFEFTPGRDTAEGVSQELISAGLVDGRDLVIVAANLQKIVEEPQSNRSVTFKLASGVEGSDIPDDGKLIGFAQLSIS
Sequence of Cyclin-dependent kinase-like 1 (Homo sapiens) (Q00532 whole entry): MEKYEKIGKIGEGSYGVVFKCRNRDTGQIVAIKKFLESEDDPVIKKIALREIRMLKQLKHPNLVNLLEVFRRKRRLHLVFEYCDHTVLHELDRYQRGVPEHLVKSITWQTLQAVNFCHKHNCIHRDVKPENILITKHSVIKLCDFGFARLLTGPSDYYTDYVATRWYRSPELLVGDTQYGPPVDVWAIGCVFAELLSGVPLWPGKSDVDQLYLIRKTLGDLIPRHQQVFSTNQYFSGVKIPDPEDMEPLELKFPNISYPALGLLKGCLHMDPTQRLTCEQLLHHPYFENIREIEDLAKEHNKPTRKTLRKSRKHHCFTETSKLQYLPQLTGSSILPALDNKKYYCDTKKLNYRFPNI

| Structure (SMILES) | IC50 [1] | ΔTm [2] | ΔTm [3] | ΔTm [4] | ΔTm [5] | ΔTm [6] | ΔTm [7] | ΔTm [8] | IC50 [9] | IC50 ([10]; read-out: IC50) | Ki [1] | IC50 [11] | Activity [1] | Log IC50 [1] | IC50 ([10]; read-out: Log IC50 (converted)) |
| --- | --- | --- | --- | --- | --- | --- | --- | --- | --- | --- | --- | --- | --- | --- | --- |
| CC(C)c1nn(-c2c(Cl)cccc2Cl)c2nc(Cc3ccc(OCCO)cc3)[nH]c(=O)c12 | 0.839 µM | 0.9 °C | 0.2 °C | 2 °C | 2.9 °C | 0 °C | 2.9 °C | 1.4 °C | – | – | – | – | – | – | – |
| c1ccc(-c2n[nH]c3c2oc2ccccc23)cc1 | – | 0.6 °C | 0.1 °C | 0 °C | 0.8 °C | -0.5 °C | 1.2 °C | 6.8 °C | 0.3 µM | ≥ 10 µM | – | – | – | – | – |
| Cc1nc(N)sc1-c1ccnc(Nc2cccc([N+](=O)[O-])c2)n1 | – | – | 3.5 °C | 1.4 °C | 1.2 °C | 1.9 °C | 2.3 °C | 2.9 °C | – | – | 0.053 µM | – | – | – | – |
| COc1ccc(CNc2nc(N(CCO)CCO)nc3c2ncn3C(C)C)cc1 | 215 µM | 0.3 °C | 0.3 °C | 0.3 °C | 0.4 °C | 0 °C | 0.5 °C | 2.3 °C | – | – | – | – | – | – | – |
| COc1ccc2c(c[n+](C)c3c4cc5c(cc4ccc23)OCO5)c1OC [CHELERYTHRINE CHLORIDE] | – | 0.1 °C | -3.5 °C | -2.5 °C | -2.6 °C | -0.7 °C | -3.1 °C | -0.4 °C | – | – | – | 0.024 µM | – | – | – |
| COc1ccc2c(c1)/C(=C/c1cnc[nH]1)C(=O)N2 [SU-9516] | 0.2 µM | – | 5.8 °C | 0.1 °C | 1.3 °C | 0.2 °C | 4.9 °C | 4.4 °C | – | – | – | – | – | – | – |
| CCCNC(=O)Nc1ccc(Oc2ncnc3cc(OC)c(OC)cc23)cc1Cl [KRN-633] | – | 0.8 °C | 0.8 °C | 0.8 °C | 0.3 °C | -0.1 °C | 1 °C | 0.2 °C | 4.33 µM | – | – | – | – | – | – |
| CN(C)S(=O)(=O)c1ccc2c(c1)/C(=C/c1cc3c([nH]1)CCCC3)C(=O)N2 | – | 2.3 °C | 0 °C | 0.8 °C | 2.2 °C | 0.4 °C | 12.8 °C | 0.3 °C | – | 0.28 µM | – | – | – | – | – |
| NS(=O)(=O)c1ccc(Nc2nc(OCC3CCCCC3)c3nc[nH]c3n2)cc1 | 1.6 µM | 0.6 °C | 0.6 °C | 0.1 °C | 1 °C | -0.1 °C | 1.1 °C | 4.4 °C | – | – | – | – | – | – | – |
| CCOC(=O)c1cnc2oc3ccc(O)cc3c2c1-c1ccccc1 | – | 0.4 °C | -0.3 °C | -0.5 °C | 1.3 °C | -0.5 °C | 2.8 °C | 5.4 °C | – | – | – | – | Active | – | – |
| CCN(CC)CCNC(=O)c1c(C)[nH]c(/C=C2\C(=O)Nc3ccc(Cl)cc32)c1C [SU-11652] | – | 2.8 °C | 0.2 °C | -0.8 °C | 2.9 °C | -0.7 °C | 7.8 °C | 6 °C | 0.01 µM | – | – | – | – | – | – |
| Cl.Cn1cc(C2=C(c3ccc4cc5n(c4c3)CCC(CN)C5)C(=O)NC2=O)c2ccccc21 (centres undefined) | – | 1.2 °C | 0.2 °C | -0.7 °C | -0.1 °C | 0 °C | 0.1 °C | 1.2 °C | – | – | – | 0.039 µM | – | – | – |
| Cc1cc(C=C2C(=O)C=CC2=O)cc(C)c1O | – | -0.1 °C | -2.2 °C | -0.4 °C | 0.1 °C | -0.4 °C | 1.3 °C | 3.2 °C | – | 4.4 µM | – | – | – | – | – |
| NCCNc1ncc(C(N)=O)c(Nc2cccc(C(F)(F)F)c2)n1 | – | 0.4 °C | 0.6 °C | 2 °C | 5.4 °C | 5.5 °C | 0.3 °C | 1.9 °C | – | – | – | 5.1 µM | – | – | – |
| CC(=O)O/N=C1/C(=C2/C(=O)Nc3cc(Br)ccc32)Nc2ccccc21 [6-BROMOINDIRUBIN-3'-ACETOXIME] | ≥ 10 µM | 0.9 °C | 3.2 °C | 0.7 °C | -1.1 °C | 0.8 °C | 6.7 °C | 1.7 °C | – | – | – | – | – | – | – |
| N#CCCc1ccc2c(c1)-c1[nH]c3ccc([N+](=O)[O-])cc3c1CC(=O)N2 [ALSTERPAULLONE 2] | – | 0.2 °C | 0.5 °C | 0.8 °C | 0.8 °C | -0.4 °C | 10.3 °C | 3 °C | – | – | – | – | – | -7 | 0.316 µM |
| CN(C)c1ncnc2nc[nH]c12 [DIMETHYLADENINE] | – | 0 °C | 0 °C | 0 °C | 1.1 °C | 0.1 °C | 1.3 °C | 0.5 °C | – | – | – | – | – | – | – |
| O=C(Nc1cccc(Nc2cc(Nc3cccc(C(F)(F)F)c3)ncn2)c1)C1CC1 | – | 2.9 °C | 1.5 °C | -0.4 °C | 0.9 °C | 1.7 °C | 2 °C | 3.4 °C | – | – | – | – | – | – | – |
| CSc1nc(-c2ccc(F)cc2)c(-c2ccnc(NC(C)c3ccccc3)c2)[nH]1 (racemic) | – | 0 °C | 0.8 °C | 0.5 °C | 0.3 °C | -0.9 °C | 0.3 °C | -0.1 °C | – | – | – | – | – | – | – |

From ChEMBL document CHEMBL1145498, “A systematic interaction map of validated kinase inhibitors with Ser/Thr kinases” (Proc Natl Acad Sci U S A, 2007)
